Data: ChEMBL document CHEMBL1201862, “PubChem BioAssay data set” (2004)
The source made the active and inactive calls.

Tests used:
[1] = Luminescence Cell-Based Dose Retest to Confirm Inhibitors of Cancer Stem Cells. [Related pubchem assays (depositor defined):AID2717, AID2721]; format: functional; conditions: Homo sapiens
Ephrin type-A receptor 4 = Ephrin type-A receptor 4 (Mus musculus, UniProt Q03137); assay: inhibitors of EphA4 binding to KYL peptide, primary screen, biochemical, colorimetric, mouse EphA4 (AID 689); format: functional
[2] = molecular target: G-protein coupled receptor 55 (Homo sapiens, UniProt Q9Y2T6); assay: GPR55 antagonists blocking LPI-driven arrestin recruitment, primary screen, imaging, U2OS, beta-arrestin-GFP, LPI agonist (AID 2013); format: functional;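 also: antagonist potency measured as reduced agonist-driven arrestin aggregation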
[3] = molecular target: Botulinum neurotoxin type A (Clostridium botulinum (strain Hall / ATCC 3502 / NCTC 13319 / Type A), UniProt P0DPI1); assay: High-throughput multiplex microsphere dose response for inhibitors of toxin protease, specifically Botulinum neurotoxin light chain A protease, compounds from Cherry Pick 01.; format: functional; conditions: read-out: EC50_MICROM
[4] = molecular target: Voltage-dependent T-type calcium channel subunit alpha-1H (Homo sapiens, UniProt O95180); format: functional;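 also: channel activity triggered by adding a high calcium stimulation buffer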
[5] = molecular target: T1, High affinity choline transporter 1 (Homo sapiens, UniProt Q9GZV3); assay: CHT activators, dose response, cell-based, 10-point CRC, membrane potential dye (AID 602376); format: functional
T1 sequence (Q9GZV3 whole entry): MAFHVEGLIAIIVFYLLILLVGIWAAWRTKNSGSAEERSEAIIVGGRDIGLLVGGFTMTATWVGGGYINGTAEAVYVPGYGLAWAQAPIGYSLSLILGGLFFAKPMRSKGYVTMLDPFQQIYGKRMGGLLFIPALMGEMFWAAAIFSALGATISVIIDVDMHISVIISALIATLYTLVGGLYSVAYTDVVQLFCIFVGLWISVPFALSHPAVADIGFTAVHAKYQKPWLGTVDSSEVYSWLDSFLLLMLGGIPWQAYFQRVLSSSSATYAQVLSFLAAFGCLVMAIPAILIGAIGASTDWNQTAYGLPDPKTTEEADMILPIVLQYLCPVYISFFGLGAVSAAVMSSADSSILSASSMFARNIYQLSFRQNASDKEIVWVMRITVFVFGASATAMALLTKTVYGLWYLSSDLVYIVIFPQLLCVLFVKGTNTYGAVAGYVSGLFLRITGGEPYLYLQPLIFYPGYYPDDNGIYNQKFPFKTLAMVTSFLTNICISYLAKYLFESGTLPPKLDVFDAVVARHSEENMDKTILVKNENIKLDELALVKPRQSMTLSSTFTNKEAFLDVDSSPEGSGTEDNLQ

Candida albicans [6] = assay: fluconazole resistance reversal in C. albicans, dose response, CaCi-2 strain, Alamar Blue, dry powder, set 4 (AID 488943); format: functional, organism-based
Candida albicans [7] = assay: growth inhibition of azole-resistant C. albicans, dose response, CaCi-8 strain, Alamar Blue, dry powder, set 2 (AID 488909); format: functional, organism-based
Candida albicans [8] = assay: growth inhibition of resistant C. albicans, dose response, CaCi-8 strain, fluconazole, dry powder, set 4 (AID 488950); format: functional, organism-based
Candida albicans [9] = assay: C. albicans growth inhibition with fluconazole, dose response, antifungal resistance reversal project, CaCi-2 strain, Alamar Blue, dry powder, set 2 (AID 488930); format: functional, organism-based
[10] = molecular target: Glycogen synthase kinase-3 beta (Homo sapiens, UniProt P49841); assay: Inhibition of Human GSK-3 beta Activity Measured in Biochemical System Using Microfluidics - 2063-05_Inhibitor_Dose_DryPowder_Activity_Set2. [Related pubchem assays (depositor defined):AID2709]
[11] = molecular target: Cyclin-dependent kinase 5/CDK5 activator 1 (Homo sapiens, UniProt Q00535); assay: CDK5-p25 kinase inhibitors, specificity check, dose response, selectivity assay for GSK-3 alpha inhibitor project, biochemical, microfluidic mobility shift, dry powder (AID 588430)
[12] = molecular target: Glycogen synthase kinase-3 alpha (Homo sapiens, UniProt P49840); assay: Inhibition of Human GSK-3 alpha Activity Measured in Biochemical System Using Microfluidics - 2063-06_Inhibitor_Dose_DryPowder_Activity_Set2. [Related pubchem assays (depositor defined):AID2709]
Jurkat = assay: SAR Analysis of small molecule inhibitors of […] specific antigen receptor-induced NF-kB activation in a Jurkat cell line using a luminescence assay - Set 3. [Related pubchem assays (depositor defined):AID435022, AID435025, AID465]; format: functional, cell-based; conditions: Homo sapiens
HEK293 [13] = assay: cytotoxicity in HEK293T NF-kB-Luc cells, SAR follow-up, cytotoxicity control for NF-kB activator project, cell-based, resazurin fluorescence (AID 493251); format: functional; conditions: Homo sapiens
HEK293 [14] = assay: SAR Analysis of small molecule inhibitors of B-cell specific antigen receptor-induced NF-kB activation in a HEK-293T cell line using a luminescence assay - Set 2. [Related pubchem assays (depositor defined):AID435022, AID435025, AID489021]; format: functional, cell-based; conditions: Homo sapiens

Sequence of Ephrin type-A receptor 4 (Q03137 whole entry): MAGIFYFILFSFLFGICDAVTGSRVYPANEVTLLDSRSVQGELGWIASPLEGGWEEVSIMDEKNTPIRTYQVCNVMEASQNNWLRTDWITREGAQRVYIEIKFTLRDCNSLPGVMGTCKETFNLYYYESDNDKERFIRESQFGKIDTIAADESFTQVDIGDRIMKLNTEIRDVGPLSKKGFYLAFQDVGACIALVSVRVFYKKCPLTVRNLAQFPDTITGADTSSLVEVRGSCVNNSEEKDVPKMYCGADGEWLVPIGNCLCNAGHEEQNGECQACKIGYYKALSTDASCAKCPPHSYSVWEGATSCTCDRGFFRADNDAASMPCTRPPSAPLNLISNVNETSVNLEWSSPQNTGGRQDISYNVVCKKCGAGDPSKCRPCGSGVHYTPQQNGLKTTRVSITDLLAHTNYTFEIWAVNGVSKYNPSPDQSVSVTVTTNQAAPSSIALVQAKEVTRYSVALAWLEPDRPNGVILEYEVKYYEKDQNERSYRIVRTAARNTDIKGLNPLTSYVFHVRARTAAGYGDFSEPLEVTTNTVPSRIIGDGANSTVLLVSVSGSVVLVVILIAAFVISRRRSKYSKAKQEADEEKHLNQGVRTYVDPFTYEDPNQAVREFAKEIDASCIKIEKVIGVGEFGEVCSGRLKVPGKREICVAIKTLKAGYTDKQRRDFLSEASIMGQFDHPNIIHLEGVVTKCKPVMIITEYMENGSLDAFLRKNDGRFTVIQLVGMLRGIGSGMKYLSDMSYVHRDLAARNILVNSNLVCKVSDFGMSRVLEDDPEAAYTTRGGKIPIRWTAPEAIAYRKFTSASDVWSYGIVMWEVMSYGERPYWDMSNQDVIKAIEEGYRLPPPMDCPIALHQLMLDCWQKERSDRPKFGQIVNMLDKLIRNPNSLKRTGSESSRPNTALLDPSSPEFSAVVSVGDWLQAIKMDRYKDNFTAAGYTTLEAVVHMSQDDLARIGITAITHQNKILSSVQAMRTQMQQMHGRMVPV
Sequence of Glycogen synthase kinase-3 alpha (P49840 whole entry): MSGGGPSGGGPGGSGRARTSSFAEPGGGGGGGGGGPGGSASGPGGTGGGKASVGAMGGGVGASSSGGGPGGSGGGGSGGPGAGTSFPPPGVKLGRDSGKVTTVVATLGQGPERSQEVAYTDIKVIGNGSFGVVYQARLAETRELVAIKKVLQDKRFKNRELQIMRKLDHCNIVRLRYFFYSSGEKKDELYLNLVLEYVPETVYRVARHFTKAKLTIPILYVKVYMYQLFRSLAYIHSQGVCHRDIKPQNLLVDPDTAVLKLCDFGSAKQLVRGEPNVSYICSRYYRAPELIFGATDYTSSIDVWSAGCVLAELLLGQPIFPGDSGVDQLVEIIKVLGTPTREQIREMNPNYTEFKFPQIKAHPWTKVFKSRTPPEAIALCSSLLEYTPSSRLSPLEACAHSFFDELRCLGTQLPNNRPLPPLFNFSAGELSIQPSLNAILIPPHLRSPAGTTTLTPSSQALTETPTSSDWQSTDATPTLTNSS
Sequence of Glycogen synthase kinase-3 beta (P49841 whole entry): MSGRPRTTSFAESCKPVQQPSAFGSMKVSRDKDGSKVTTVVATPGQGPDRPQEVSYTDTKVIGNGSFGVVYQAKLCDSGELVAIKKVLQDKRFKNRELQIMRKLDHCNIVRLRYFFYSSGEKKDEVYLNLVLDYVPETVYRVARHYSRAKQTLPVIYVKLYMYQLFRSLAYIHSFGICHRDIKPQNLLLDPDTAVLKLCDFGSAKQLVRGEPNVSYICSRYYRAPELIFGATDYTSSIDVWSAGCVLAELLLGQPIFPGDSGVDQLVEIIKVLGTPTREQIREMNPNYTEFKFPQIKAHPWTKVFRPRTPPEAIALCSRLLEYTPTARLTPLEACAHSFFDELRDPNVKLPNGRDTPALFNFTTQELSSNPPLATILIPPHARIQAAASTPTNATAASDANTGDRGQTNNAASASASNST
Sequence of Cyclin-dependent kinase 5/CDK5 activator 1 (Q00535 whole entry): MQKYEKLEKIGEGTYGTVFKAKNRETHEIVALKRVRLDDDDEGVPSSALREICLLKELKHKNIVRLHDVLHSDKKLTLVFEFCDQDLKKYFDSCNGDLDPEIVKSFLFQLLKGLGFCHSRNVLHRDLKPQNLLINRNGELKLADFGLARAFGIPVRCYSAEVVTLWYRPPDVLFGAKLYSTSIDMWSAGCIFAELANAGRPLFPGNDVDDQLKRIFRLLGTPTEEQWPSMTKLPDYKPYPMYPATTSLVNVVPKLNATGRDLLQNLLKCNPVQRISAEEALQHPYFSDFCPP
Sequence of Cyclin-dependent kinase 5/CDK5 activator 1 (Q15078 whole entry, further chain): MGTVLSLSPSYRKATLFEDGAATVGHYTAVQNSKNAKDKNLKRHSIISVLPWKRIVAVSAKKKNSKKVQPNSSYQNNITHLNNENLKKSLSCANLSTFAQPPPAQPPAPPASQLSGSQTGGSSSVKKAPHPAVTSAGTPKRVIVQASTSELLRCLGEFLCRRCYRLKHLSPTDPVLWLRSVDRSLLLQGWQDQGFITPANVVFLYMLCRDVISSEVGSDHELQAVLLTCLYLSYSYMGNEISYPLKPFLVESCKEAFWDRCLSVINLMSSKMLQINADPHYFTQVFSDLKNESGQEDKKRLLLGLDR
Sequence of Botulinum neurotoxin type A (P0DPI1 2-448 limits assumed): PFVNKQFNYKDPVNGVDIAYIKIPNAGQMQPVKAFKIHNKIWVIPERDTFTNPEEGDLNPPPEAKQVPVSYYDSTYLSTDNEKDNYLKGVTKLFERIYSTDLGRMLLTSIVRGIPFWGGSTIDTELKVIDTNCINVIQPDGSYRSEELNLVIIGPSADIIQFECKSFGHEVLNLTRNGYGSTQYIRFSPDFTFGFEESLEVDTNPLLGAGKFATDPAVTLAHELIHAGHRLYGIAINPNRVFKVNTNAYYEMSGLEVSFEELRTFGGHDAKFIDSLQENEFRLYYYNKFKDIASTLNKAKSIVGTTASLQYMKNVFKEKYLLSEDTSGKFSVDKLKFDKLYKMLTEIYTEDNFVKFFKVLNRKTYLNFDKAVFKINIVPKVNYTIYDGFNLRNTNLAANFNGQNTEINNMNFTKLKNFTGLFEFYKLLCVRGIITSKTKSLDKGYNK
Sequence of G-protein coupled receptor 55 (Q9Y2T6 whole entry): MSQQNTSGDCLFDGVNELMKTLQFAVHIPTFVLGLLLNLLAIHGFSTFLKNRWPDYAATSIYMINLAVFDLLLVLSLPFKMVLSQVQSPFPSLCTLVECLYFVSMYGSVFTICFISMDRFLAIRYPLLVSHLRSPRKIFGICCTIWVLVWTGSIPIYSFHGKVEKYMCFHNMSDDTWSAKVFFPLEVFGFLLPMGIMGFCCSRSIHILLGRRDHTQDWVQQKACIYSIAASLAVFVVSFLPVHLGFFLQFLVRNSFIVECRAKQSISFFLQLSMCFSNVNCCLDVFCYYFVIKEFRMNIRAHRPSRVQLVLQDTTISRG

CCSc1nnc(-c2sc3nnc(-c4ccccc4)c(-c4ccccc4)c3c2N)o1
active: AC50 [1] 0.286 µM | IC50 (Ephrin type-A receptor 4) 4.62 µM | IC50 [2] 2.44 µM | EC50 [3] 6.9 µM

CCN(CC)CCn1c(NCc2nc3ccccc3n2Cc2ccccc2)nc2ccccc21
active: EC50 [4] 4.94 µM | EC50 [5] 11.4 µM

O=C(C1CCCC1)N1CCN(c2ccnc3cc(Cl)ccc23)CC1
active: AC50 (Candida albicans [6]) 2.08 µM | AC50 (Candida albicans [7]) 2.01 µM | AC50 (Candida albicans [8]) 1.71 µM | AC50 (Candida albicans [9]) 0.566 µM

COc1cc(/C=N/Nc2ccc([N+](=O)[O-])cn2)cc(OC)c1O
active: AC50 [10] 0.095 µM | AC50 [11] 1.55 µM | AC50 [12] 0.367 µM

CCOCCCNC(=O)CSCc1nc(-c2ccc(OCC)cc2)oc1C
inactive: IC50 (Jurkat) 51.9 µM | IC50 (HEK293 [13]) > 80 µM | IC50 (HEK293 [14]) > 80 µM
